Laboratory results from PubChem BioAssay AID1996.
Values after ≈ are worked out from the molar mass of the structure shown.

Conditions: buffer; pH 7.4; 200.0 µM

SMILES	solubility kinetic
COc1ccc(C2CC(=O)C(C=NCCCO)=C(O)C2)cc1 (configuration not stated)	> 45.5 µg/mL
Cc1ccc(C(=O)OCC(=O)N2CCCC2)cc1	32.7 µg/mL (≈ 132 µM)
CC(Cc1ccccc1)NC(=O)c1ccc(N)cc1 (configuration not stated)	> 38.1 µg/mL
COC(Cn1cc(C)c(=O)[nH]c1=O)OC	30.3 µg/mL (≈ 141 µM)
Cc1c(C(=O)OCC(=O)NC(=O)NC2CCCCC2)cccc1[N+](=O)[O-]	2.3 µg/mL (≈ 6.33 µM)
CC1CCCN(CCC(=O)c2ccc(Br)cc2)C1.Cl (configuration not stated)	33.8 µg/mL
CCOC(=O)c1c2c3c(cccc3[nH]c1=O)C(=O)c1ccccc1-2	< 0.7 µg/mL
CNC(=O)COC(=O)c1ccccc1Nc1ccccc1	2.6 µg/mL (≈ 9.14 µM)
O=C(/C=C/c1ccc(Cl)cc1)NCCCn1ccnc1	> 43.5 µg/mL
O=C(NC(=S)NC1CCS(=O)(=O)C1)c1ccccc1 (configuration not stated)	> 44.8 µg/mL
CCOc1ccc(CCNC(=O)/C=C/c2ccco2)cc1OCC	> 49.4 µg/mL
COc1ccc(OCC(=O)OC2CCCN(C)C2)cc1.Cl (configuration not stated)	> 47.4 µg/mL
Cc1ccc(NC(=O)COC(=O)C2CCC2)cc1S(=O)(=O)N1CCOCC1	> 59.5 µg/mL
CC(Nc1ccccc1)c1cccnc1 (configuration not stated)	> 29.7 µg/mL
COC(=O)c1ccc(CSCC(=O)Nc2ccccc2)cc1	> 47.3 µg/mL
O=C(NC(=O)N1CCCCC1)c1ccc(Cl)cc1	> 40 µg/mL
CN1CCCC(OC(=O)c2cc(F)c(F)c(F)c2F)C1.Cl (configuration not stated)	45.4 µg/mL
Clc1ccc(CN2CCN(c3ccccc3)CC2)cn1	21 µg/mL (≈ 73 µM)
CC(C)C1CC(C(=O)Nc2ccccc2)C(=O)O1 (configuration not stated)	34.9 µg/mL (≈ 141 µM)
CC1CN(S(=O)(=O)c2cc(C(=O)N(C)Cc3cccs3)ccc2Cl)CC(C)O1 (configuration not stated)	64.6 µg/mL (≈ 146 µM)
CN1CCC(N(C)S(=O)(=O)c2ccc(Cl)cc2)CC1	> 45.4 µg/mL
CCN(CC)C(=O)c1ccc(CS(=O)(=O)Cc2ccccc2)cc1	> 51.8 µg/mL

SMILES	solubility kinetic
O=c1[nH]c(N2CCOCC2)nc2ccccc12	> 34.7 µg/mL
O=C(CNC(=O)c1cccs1)c1ccc(Cl)cc1	26.4 µg/mL (≈ 94.4 µM)
O=C(CCCN1C(=O)c2ccccc2C1=O)NCc1ccc(F)cc1	47.8 µg/mL (≈ 140 µM)
COc1ccc(CCC(=O)OCC(=O)Nc2sccc2C(N)=O)cc1OC	21 µg/mL (≈ 53.5 µM)
Fc1cc(Br)ccc1NC(=S)Nc1cccnc1	44.8 µg/mL (≈ 137 µM)
CCCCNC(=S)N1CCN(c2nc3ccccc3s2)CC1	0.9 µg/mL (≈ 2.69 µM)
O=C(COC(=O)/C=C/c1cccs1)Nc1ccc(Cl)cc1F	3.7 µg/mL (≈ 10.9 µM)
S=C1SCN(CC2CC2)CN1CC1CC1	> 36.4 µg/mL
C=CCc1ccccc1OCC(O)CN1C(=O)c2ccccc2C1=O (configuration not stated)	46 µg/mL (≈ 136 µM)
O=S(=O)(Nc1ccc(N2CCCCC2)cc1)c1ccc(F)cc1	9.5 µg/mL (≈ 28.4 µM)
CCN(C(=O)COC(=O)c1ccccc1O)c1cccc2ccccc12	3.5 µg/mL (≈ 10 µM)
CC(NC(=O)COC(=O)C1CCCCC1)c1ccccc1 (configuration not stated)	> 43.4 µg/mL
COc1ccc(C(=O)NC(C)C2CC3CCC2C3)cc1 (configuration not stated)	8.1 µg/mL (≈ 29.6 µM)
N#Cc1ccc(Cn2c(=O)oc3ccccc32)cc1	6 µg/mL (≈ 24 µM)
Cc1ccc(S(=O)(=O)N2CC(C(=O)O)Oc3ccccc32)cc1 (configuration not stated)	> 50 µg/mL
NS(=O)(=O)c1ccc(CCNC(=O)CN2CCCCCC2)cc1	> 50.9 µg/mL
C/C(=N\O)C(C)(C)Nc1ccc(F)cc1	> 31.5 µg/mL
O=C(COC(=O)c1ccccc1)Nc1ccc2[nH]c(=O)[nH]c2c1	7.2 µg/mL (≈ 23.1 µM)
O=C(CS(=O)(=O)c1ccccc1Cl)N1CCOCC1	43.8 µg/mL (≈ 144 µM)
c1ccc(CO/N=C(\c2ccc(C3CC3)nc2)C2CC2)cc1	1.9 µg/mL (≈ 6.5 µM)
CCC(C)(CC(=O)Nc1nccs1)c1ccccc1 (configuration not stated)	> 41.2 µg/mL
O=C(O)c1csc(-c2ccccc2)n1	28.2 µg/mL (≈ 137 µM)

SMILES	solubility kinetic
O=C(NCc1ccccc1Cl)NC(=O)c1csc([N+](=O)[O-])c1	< 0.2 µg/mL
O=C(COC(=O)c1ccccc1F)NCc1ccc2c(c1)OCO2	18.1 µg/mL (≈ 54.6 µM)
CCCNc1c(N)c(=O)c1=O	> 23.1 µg/mL
COc1ccc(NC(=O)COC(=O)Cc2c[nH]c3ccccc23)cc1Cl	4.1 µg/mL (≈ 11 µM)
CCN(CC(=O)Nc1cc(Cl)ccc1C)C(=O)CC1CCCC1	> 50.5 µg/mL
O=C(O)CCCCNS(=O)(=O)/C=C/c1ccccc1	> 42.5 µg/mL
CC(C)CNC(=O)COc1ncnc2sccc12	> 39.8 µg/mL
O=S(=O)(NC1CCCCCCC1)c1ccccc1F	42.5 µg/mL (≈ 149 µM)
Cc1ccc(CC(=O)NC2CCN(C)CC2)cc1	> 37 µg/mL
Cc1cccc(C)c1NC(=O)N1CCCCCCC1	38.8 µg/mL (≈ 149 µM)
O=C(OCC(=O)N1CCCCCC1)c1ccc([N+](=O)[O-])cc1Cl	50 µg/mL (≈ 147 µM)
CCOc1ccc(C(=O)CCC(=O)N2CCN(c3ccccc3O)CC2)cc1	2.2 µg/mL (≈ 5.75 µM)
CC1(C)CC(C(=O)Nc2ccccc2)C(=O)O1 (configuration not stated)	> 35 µg/mL
Cc1ccccc1NS(=O)(=O)c1csc(C(N)=O)c1	> 44.5 µg/mL
Cn1ccsc1=NC(=O)c1ccc(=O)[nH]c1	30.6 µg/mL (≈ 130 µM)
N#C/C=C/N1CCN(C(=O)c2ccco2)CC1	> 34.7 µg/mL
CC(NC(=O)c1cccc(Cl)c1)C1CC2CCC1C2 (configuration not stated)	< 0.6 µg/mL
O=C(O)[C@@H]1CCCN1C(=O)COc1ccc2c3c(c(=O)oc2c1)CCC3	> 53.6 µg/mL
COc1cc(N2CCCC2)c(OC)cc1C=O	> 35.3 µg/mL
O=C(OCCN1C(=O)c2ccccc2C1=O)[C@@H]1CC(O)CN1S(=O)(=O)c1ccccc1[N+](=O)[O-] (some centres not stated)	> 73.4 µg/mL
S=C(NC1CC1)N1CCc2ccccc2C1	> 34.9 µg/mL

Results, then the compound that gave them:

solubility kinetic	SMILES
3.6 µg/mL (≈ 9.84 µM)	Cc1cccc(N2CCN(S(=O)(=O)c3ccc(Cl)nc3)CC2C)c1 (configuration not stated)
3.4 µg/mL (≈ 12.2 µM)	Cc1cc(-c2ccc(Cl)cc2Cl)c(C#N)c(=O)[nH]1
39 µg/mL (≈ 141 µM)	COc1ccc(C(O)Cn2cc([N+](=O)[O-])nc2C)cc1 (configuration not stated)
41.1 µg/mL (≈ 149 µM)	Cc1cc(C)nc(N2CCCC(C(=O)NC(C)C)C2)n1 (configuration not stated)
9.8 µg/mL (≈ 27.9 µM)	O=C1CC(N(O)c2ccccc2)C(=O)N1c1ccc(Cl)c(Cl)c1 (configuration not stated)
2.1 µg/mL (≈ 7.6 µM)	Cc1ccc(NC(=O)c2cc(C)nc3ccccc23)cc1
> 40.7 µg/mL	COc1cccc(CSc2nc3ccncc3[nH]2)c1
6 µg/mL (≈ 26.3 µM)	Cc1ccnc(NCc2cc(C)ccc2O)c1
2 µg/mL (≈ 6.2 µM)	Cc1ccc(OCCNC(=O)c2cc(=O)[nH]c3ccccc23)cc1
> 55.1 µg/mL	Cc1sc2nc(CSC(C)C(=O)N3CCOCC3)[nH]c(=O)c2c1C (configuration not stated)
< 0.2 µg/mL	COC(=O)c1cnc(Nc2cccc(C(F)(F)F)c2)c([N+](=O)[O-])c1
6.4 µg/mL (≈ 20.5 µM)	CCN(CC)c1ccc(NC(=O)c2ccc3c(c2)OCO3)cc1
> 51.8 µg/mL	COc1ccc2oc(C(=O)OCC(=O)N3CCCCC3C)c(C)c2c1 (configuration not stated)
> 51.5 µg/mL	Cc1cc([N+](=O)[O-])nn1CC(=O)N1CCN(Cc2ccccc2)CC1
43.2 µg/mL (≈ 124 µM)	CS(=O)(=O)CC(=O)Nc1ccc2nc3n(c(=O)c2c1)CCCCC3
> 43.3 µg/mL	CC(C#N)Sc1nnc(-c2ccccc2F)n1C1CC1 (configuration not stated)
15.6 µg/mL (≈ 48.3 µM)	Cc1noc(C)c1C(=O)OCC(=O)NCc1ccc(Cl)cc1
2.1 µg/mL (≈ 6.77 µM)	Cc1ccc(NC(=O)C2CCCN(c3ncccn3)C2)cc1C (configuration not stated)
27.1 µg/mL (≈ 70.1 µM)	COc1ccc2c(c1)-c1nc(/N=C/c3c(O)ccc4ccccc34)sc1CC2

solubility kinetic	SMILES
1.5 µg/mL (≈ 5.17 µM)	Cc1cccc(OCCCC(=O)Nc2nccs2)c1C
7.4 µg/mL (≈ 26 µM)	CN(C)C(=O)c1cc2cc(Br)ccc2s1
> 46.7 µg/mL	COc1ccc(C(CC(=O)O)N2Cc3ccccc3C2=O)cc1 (configuration not stated)
3.3 µg/mL (≈ 7.31 µM)	CCOc1ncccc1C(=O)N(CCC(C)C)c1c(N)n(Cc2ccccc2)c(=O)[nH]c1=O
31.9 µg/mL (≈ 136 µM)	CC(C)(C)Nc1nc2ccc([N+](=O)[O-])cc2o1
2.3 µg/mL (≈ 7.11 µM)	CCOc1ccc2nc(N/C(N)=N/S(C)(=O)=O)nc(C)c2c1
> 49.3 µg/mL	Cl.NCCN1C(=O)S/C(=C\c2ccc3c(c2)OCO3)C1=O
> 48 µg/mL	Cc1ccc[n+](CC(=O)Nc2nc3ccccc3s2)c1.[Cl-]
2.7 µg/mL (≈ 7.98 µM)	Cc1ccc2cc(COC(=O)c3cccc([N+](=O)[O-])c3)c(=O)[nH]c2c1
10.6 µg/mL (≈ 34.7 µM)	COC(=O)c1cc(C(=O)OC)n(Cc2ccc(F)cc2)c1C
0.9 µg/mL (≈ 3.95 µM)	Cc1cc(Cl)c2cc3ccccc3cc2n1
9.6 µg/mL (≈ 31.8 µM)	O=[N+]([O-])c1cccnc1N1CCN(c2ccccc2F)CC1
33.3 µg/mL (≈ 125 µM)	CC1CC(C)CN(C(=O)c2ccc3ccccc3c2)C1 (configuration not stated)
6.8 µg/mL (≈ 23.8 µM)	Cc1cc(C(=O)Nc2ccc(N3CCCCC3)cc2)no1
> 44.4 µg/mL	Cc1nn(CC(=O)NCc2ccccc2)c(=O)c2cccn12
1.9 µg/mL (≈ 6.75 µM)	COc1ccc2[nH]c(C(=O)Nc3cccc(C)n3)cc2c1
12.1 µg/mL (≈ 40 µM)	O=[N+]([O-])c1cccnc1N1CCN(c2ccc(F)cc2)CC1
16.7 µg/mL (≈ 52.9 µM)	O=C(Cc1c(F)cccc1Cl)Nc1ncc([N+](=O)[O-])s1
> 40.1 µg/mL	Cc1ccnc2nc(C(=O)NCc3ccccc3)nn12

solubility kinetic	SMILES
> 47.3 µg/mL	CCOc1ccc(CCNC(=O)c2cnccn2)cc1OCC
49.8 µg/mL (≈ 149 µM)	COCCCNC(=O)c1ccc(CSCc2ccc(C)cc2)o1
> 42.8 µg/mL	Cc1ccnc(SCc2cn3c(C)cc(C)nc3n2)n1
> 39.7 µg/mL	COc1ccc(CCCc2n[nH]c(=S)o2)cc1C
7.6 µg/mL (≈ 30.7 µM)	CCOc1ccc(Nc2cc(=O)[nH]c(=O)[nH]2)cc1
> 50 µg/mL	CN(CCC1CCOCC1)Cc1nc(Cc2ccccc2F)no1
10.6 µg/mL (≈ 33 µM)	COc1ccc(NC(=O)c2ccc(Oc3ncccn3)cc2)cc1
0.9 µg/mL (≈ 3.73 µM)	CCCOc1ncnc2c1[nH]c1ccc(C)cc12
< 0.3 µg/mL	CCOc1ccccc1C(=O)Nc1ccc2c(c1)C(=O)NC2=O
4.2 µg/mL (≈ 9.32 µM)	Cc1ccc(NC(=O)CSc2nc(C)c(C)c(C)n2)cc1S(=O)(=O)N1CCOCC1
16.6 µg/mL (≈ 61.2 µM)	Cc1ccc2oc(C(=O)N3CCCCCC3)c(C)c2c1
3.3 µg/mL (≈ 10.8 µM)	O=c1[nH]c(O)c(/C=C2\C=Nc3ccc(Br)cc32)[nH]1
> 42.2 µg/mL	O=C(NCCCn1ccnc1)c1ccc2nccnc2c1
7.4 µg/mL (≈ 32.7 µM)	O=C1c2cc([N+](=O)[O-])ccc2-c2ncccc21
> 44.6 µg/mL	COCCn1cnnc1SCC(=O)Nc1cc(C)on1
15.1 µg/mL (≈ 53.9 µM)	O=c1c2ccccc2ncn1Cc1ccc2c(c1)OCO2
0.7 µg/mL (≈ 2.49 µM)	CCCc1cc(C(=O)Nc2ccc(Cl)cn2)cs1
> 44.4 µg/mL	COC(=O)Cn1c(C(O)c2ccccc2)nc2ccccc21 (configuration not stated)
28.4 µg/mL (≈ 93.6 µM)	COc1ccccc1C1CC(=O)NC(C)=C1C(=O)OC(C)C (configuration not stated)
